According to paper PMC9641905, “Synthesis, biological evaluation and molecular docking of new triphenylamine-linked pyridine, thiazole and pyrazole analogues as anticancer agents” (BMC Chemistry, 2022):
pIC50: −log10 of the molar value.

Columns and labels:
MDA-MB-231 cell line = experiment: MTT cytotoxicity assay, MDA-MB-231 breast cancer cell line; type: cell-based, human; conditions: breast cancer cells
Method: (§1) The lung cancer A-549 and the breast cancer MDA-MB-231 cell lines were obtained from the viscera Tissue Culture Unit. The cells were spread in Dulbecco’s modified Eagle’s medium (DMEM) supplemented with 10% heat-inactivated fetal bovine serum, 1% L-glutamine, HEPES buffer, and 50 µg/mL gentamycin. All cells were maintained at 37 °C in a humidified atmosphere with 5% CO2 and were sub-cultured two times a week.
(§2) The MTT assay was applied to determine the cytotoxicity of pyridine and thiazole derivatives. MTT or 3-(4,5-dimethylthiazol-2-yl)-2,5-diphenyltetrazolium bromide was purchased from Serva, Germany. The cell lines were introduced into 96-well plates at a cell concentration of 1 × 10^4 cells per well in 100 μL of complete medium (tests were done in duplicates). These plates were incubated for 24 h, 5% CO2, at 37 °C for settle down and adhesion. Control cells were incubated without the test sample and with or without DMSO. After incubation, different concentrations of samples were added after the period of incubation (48 h), media were inhaled, and the MTT solution was added to all wells for full 30 min. Briefly, the media was extracted from the 96 well plates and exchanged with 100 µl of fresh culture RPMI 1640 medium without phenol red then 10 µl of the 12 mM MTT stock solution (5 mg of MTT in 1 mL of PBS) to all wells inclusive the untreated controls. The 96 well plates were incubated at 37 °C and 5% CO2 for 4 h. An 85 µl aliquot of the media was taken away from the wells, added 50 µl of DMSO to all wells and mixed thoroughly, and incubated at 37 °C for 10 min. The absorbance of plates was measured after shaking on a microplate reader (TECAN, Inc.), using a test wavelength of 590 nm. Measure the optical density by the microplate reader to calculate the number of viable cells and the percentage of viability according to [(ODt/ODc)] × 100% where ODt (optical density of cells treated) with the tested sample and ODc (optical density of control cells).
(§3) In the vitro cytotoxic activity of triphenylamine-based pyridine, thiazole, pyrazole and/or isoxazole derivatives was estimated against two cell lines as lung cancer (A-549) and mammary gland breast cancer cell line (MDA-MB-231) by using MTT assay according to reported method. Cisplatin is one of the common alkylation agents was selected to be the reference drug. From graphic plots of the dose response curve determine the 50% inhibitory concentration (IC50) (Fig. 2).

[1] = test system: human lung fibroblast noncancerous cell line (MRC-5); experiment: MTT cytotoxicity assay against normal cells (MRC-5); type: cell-based; conditions: normal human lung fibroblasts
Method: as §2
(§4) The MTT assay was applied to determine the cytotoxicity of pyridine and thiazole derivatives against normal cell line to explore the selectivity of the tested compounds against tumor cells. The cytotoxicity was tested against human lung fibroblast noncancerous cell line (MRC-5).

A-549 cell line = experiment: MTT cytotoxicity assay, A-549 lung cancer cell line; type: cell-based, human; conditions: lung cancer cells
Method: as §1, §2, §3

[2] = MTT cytotoxicity assay against normal cells (MRC-5); type: cell-based; conditions: MRC-5 cells (normal lung fibroblasts), normal human lung fibroblasts, read-out: CC50 MRC-5 cell line
Method: as §2, §4

Compound	pIC50 (MDA-MB-231 cell line; 48 h)	CC50 [1]	pIC50 (A-549 cell line; 48 h)	pIC50 (MDA-MB-231 cell line; Homo sapiens, MDA-MB-231, 48 h)	CC50 at 48 h [2]	pIC50 (A-549 cell line; Homo sapiens, A549, 48 h)	melting point
6-Amino-1-(p-anisyl)-4-(4-(diphenylamino)phenyl)-2-oxo-1,2-dihydropyridine-3,5-dicarbonitrile [4c]	6.71	864 nM	6.81				
N#Cc1c(-c2ccc(N(c3ccccc3)c3ccccc3)cc2)c(C#N)c(=O)n(-c2ccccc2)c1N [4a, 6-Amino-4-(4-(diphenylamino)phenyl)-2-oxo-1-phenyl-1,2-dihydropyridine-3,5-dicarbonitrile]				7.26	137 nM	7.33	
Cc1ccc(-n2c(N)c(C#N)c(-c3ccc(N(c4ccccc4)c4ccccc4)cc3)c(C#N)c2=O)cc1 [4b, 6-Amino-4-(4-(diphenylamino)phenyl)-2-oxo-1-(p-tolyl)-1,2-dihydropyridine-3,5-dicarbonitrile]				7.99	97.1 nM	8.10	
CN(C)c1ccc(-n2c(N)c(C#N)c(-c3ccc(N(c4ccccc4)c4ccccc4)cc3)c(C#N)c2=O)cc1 [4d, 6-Amino-1-(4-(dimethylamino)phenyl)-4-(4-(diphenylamino)phenyl)-2-oxo-1,2-dihydropyridine-3,5-dicarbonitrile]					1100 nM	6.63	
N#Cc1c(-c2ccc(N(c3ccccc3)c3ccccc3)cc2)c(C#N)c(=O)n(-c2ccc([N+](=O)[O-])cc2)c1N [4e, 6-Amino-4-(4-(diphenylamino)phenyl)-1-(4-nitrophenyl)-2-oxo-1,2-dihydropyridine-3,5-dicarbonitrile]				7.83	82.3 nM	8.02	
CCN(CC)c1ccc(NC(=O)C(C#N)=c2sc(=O)c(=Cc3ccc(N(c4ccccc4)c4ccccc4)cc3)n2-c2ccccc2)cc1 [6a, 2-Cyano-N-(4-(diethylamino)phenyl)-2-(4-(4-(diphenylamino)benzylidene)-5-oxo-3-phenylthiazolidin-2-ylidene)acetamide]				6.76	985 nM	6.85	
CN(C)c1ccc(NC(=O)C(C#N)=c2sc(=O)c(=Cc3ccc(N(c4ccccc4)c4ccccc4)cc3)n2-c2ccccc2)cc1 [6b, 2-Cyano-N-(4-(dimethylamino)phenyl)-2-(4-(4-(diphenylamino)benzylidene)-5-oxo-3-phenylthiazolidin-2-ylidene)acetamide]				6.91	768 nM	7.10	
Cc1ccc(NC(=O)C(C#N)=c2sc(=O)c(=Cc3ccc(N(c4ccccc4)c4ccccc4)cc3)n2-c2ccccc2)cc1 [6c, 2-Cyano-2-(4-(4-(diphenylamino)benzylidene)-5-oxo-3-phenylthiazolidin-2-ylidene)-N-(p-tolyl)acetamide]				7.29	143 nM	7.31	
COc1ccc(NC(=O)C(C#N)=c2sc(=O)c(=Cc3ccc(N(c4ccccc4)c4ccccc4)cc3)n2-c2ccccc2)cc1 [6d, 2-Cyano-2-(4-(4-(diphenylamino)benzylidene)-5-oxo-3-phenylthiazolidin-2-ylidene)-N-(4-methoxyphenyl)acetamide]				6.86	683 nM	7.02	
N.N.[Cl][Pt][Cl] [Cisplatin, reference compound]	7.92		7.61				
CCOC(=O)C=c1sc(=Cc2ccc(N(c3ccccc3)c3ccccc3)cc2)c(=O)n1-c1ccccc1 [compound 8, ethyl-2-(5-(4-(diphenylamino)benzylidene)-4-oxo-3-phenylthiazolidin-2-ylidene)acetate]				6.87	1100 nM	6.66	250 to 252 °C
CC1=NN(c2ccccc2)C(=O)C1=Cc1ccc(N(c2ccccc2)c2ccccc2)cc1 [compound 9, 4-(4-(Diphenylamino)benzylidene)-5-methyl-2-phenyl-2,4-dihydro-3H-pyrazol-3-one]				6.57	1300 nM	6.90	182 to 184 °C
O=C1ON=C(c2ccccc2)C1=Cc1ccc(N(c2ccccc2)c2ccccc2)cc1 [compound 10, 4-(4-(Diphenylamino)benzylidene)-3-phenylisoxazol-5(4H)-one]				6.95	973 nM	6.89	218 to 220 °C
